Holding throughout (assay type): cell-based, human
Test [1] concerns gluten-reactive T cells. Nature of the test: 96-well plate whole blood cytokine release, IFNγ by MAGPIX multiplex bead assay. The following applies: for Percent of maximal response to individual gluten peptides, IFNg: after oral gluten challenge; for IFNγ WB MAGPIX % max Mean: n = 8, blood after oral gluten challenge, individual peptides 5 μM (Peptide 2* of P14, Pepscan: 10 μg/mL (5.45 μM)).

In test [2] the test system is gluten-reactive T cells. Put plainly: 96-well plate whole blood cytokine release, IP-10 by MAGPIX multiplex bead assay. Conditions: for Percent of maximal response to individual gluten peptides, IP-10: after oral gluten challenge; for IP-10 WB MAGPIX % max Mean: n = 10, blood after oral gluten challenge, individual peptides 5 μM (Peptide 2* of P14, Pepscan: 10 μg/mL (5.45 μM)).

The subject of test [3] is gluten-reactive T cells. Put plainly: Cytokine release assays taken together (IFNγ ELISpot, whole blood IFNγ and IP-10, in-tube IFNγ ELISA). Put shortly: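 Whole blood with peptides (P3 0.05-50 μg/mL; P13/P14 0.025-25 μM; […]), 24 h, 37 °C; plasma IFNγ/IP-10 by multiplex beads. Tube assay: 1 mL blood with P3 or CEF, 24 h, plasma IFNγ ELISA; elevated if >7.2 pg/mL above medium tube and SI >1.25. ELISpot overnight on fresh PBMC.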

Non-standard residues stand in square brackets, D forms with d. pGlu = O=C1CC[C@@H](C(=O)O)N1 Where only a bound is given, the exact number is not on record here.

Take “(pE)QPYPQPELPYPQPQ-amide ([pGlu]QPYPQPELPYPQPQ-NH2; SMILES CC(C)C[C@H](NC(=O)[C@H](CCC(=O)O)NC(=O)[C@@H]1CCCN1C(=O)[C@H](CCC(N)=O)NC(=O)[C@@H]1CCCN1C(=O)[C@H](Cc1ccc(O)cc1)NC(=O)[C@@H]1CCCN1C(=O)[C@H](CCC(N)=O)NC(=O)[C@@H]1CCC(=O)N1)C(=O)N1CCC[C@H]1C(=O)N[C@@H](Cc1ccc(O)cc1)C(=O)N1CCC[C@H]1C(=O)N[C@@H](CCC(N)=O)C(=O)N1CCC[C@H]1C(=O)N[C@@H](CCC(N)=O)C(N)=O) [Peptide 15]”: the “Percent of maximal response to individual gluten peptides, IFNg” value (“Percent of maximal response … IFNg” for short) in the test on gluten-reactive T cells [1] (Subject 2, Max. 116 pg/mL) is recorded as 46 % of max; with gluten-reactive T cells [1] (Subject 3, Max. 799 pg/mL) it was 5 % of max; in the test on gluten-reactive T cells [1] (Subject 4, Max. 136 pg/mL) it was 24 % of max; with gluten-reactive T cells [1] (Subject 6, Max. 72 pg/mL), 5 % of max; in the test on gluten-reactive T cells [1] (Subject 7, Max. 17 pg/mL) it was 6 % of max; in the test on gluten-reactive T cells [1] (Subject 8, Max. 47 pg/mL) it was 4 % of max. The “Percent of maximal response … IFNg” value was 100 % of max in the test on gluten-reactive T cells [1] (Subject 9, Max. 67 pg/mL) and 7 % of max in the test with gluten-reactive T cells [1] (Subject 10, Max. 229 pg/mL). Also, the “IFNγ WB MAGPIX % max Mean” value with gluten-reactive T cells [1] amounted to 25 % max. Moreover, the “Percent of maximal response to individual gluten peptides, IP-10” value (shortened to “Percent of maximal response … IP-10”) with gluten-reactive T cells [2] (Subject 1, Max. 2331 pg/mL) is recorded as 4 % of max; in the test on gluten-reactive T cells [2] (Subject 2, Max. 3646 pg/mL), 30 % of max; in the test with gluten-reactive T cells [2] (Subject 3, Max. 9492 pg/mL) it was ≥ 100 % of max; in the test with gluten-reactive T cells [2] (Subject 4, Max. 9463 pg/mL), 67 % of max; in the test with gluten-reactive T cells [2] (Subject 5, Max. 9336 pg/mL) it was 33 % of max; in the test on gluten-reactive T cells [2] (Subject 6, Max. 5863 pg/mL) it was 0 % of max. Besides, the “Percent of maximal response … IP-10” value with gluten-reactive T cells [2] (Subject 7, Max. 2330 pg/mL) was 6 % of max; with gluten-reactive T cells [2] (Subject 8, Max. 4019 pg/mL), 5 % of max; in the test on gluten-reactive T cells [2] (Subject 9, Max. 8349 pg/mL), 69 % of max; with gluten-reactive T cells [2] (Subject 10, Max. 8922 pg/mL), 17 % of max. For the same substance, the “IP-10 WB MAGPIX % max Mean” value with gluten-reactive T cells [2] is recorded as 33 % max. For the same substance, in the test with gluten-reactive T cells [3] (blood collected after oral gluten challenge), the “activity relative to Peptide 14 in the cytokine release assays” value was “no more than two-thirds as active as Peptide 14”.
For the substance “(pE)SGEGSFQPSQENPQ-amide ([pGlu]SGEGSFQPSQENPQ-NH2; SMILES NC(=O)CC[C@H](NC(=O)[C@@H]1CCCN1C(=O)[C@H](CC(N)=O)NC(=O)[C@H](CCC(=O)O)NC(=O)[C@H](CCC(N)=O)NC(=O)[C@H](CO)NC(=O)[C@@H]1CCCN1C(=O)[C@H](CCC(N)=O)NC(=O)[C@H](Cc1ccccc1)NC(=O)[C@H](CO)NC(=O)CNC(=O)[C@H](CCC(=O)O)NC(=O)CNC(=O)[C@H](CO)NC(=O)[C@@H]1CCC(=O)N1)C(N)=O) [Peptide 9]”, the “Percent of maximal response … IFNg” value in the test on gluten-reactive T cells [1] (Subject 2, Max. 116 pg/mL) is 19 % of max; in the test on gluten-reactive T cells [1] (Subject 3, Max. 799 pg/mL) it was 0 % of max; with gluten-reactive T cells [1] (Subject 4, Max. 136 pg/mL), 0 % of max; with gluten-reactive T cells [1] (Subject 6, Max. 72 pg/mL), 0 % of max; with gluten-reactive T cells [1] (Subject 7, Max. 17 pg/mL) it was 0 % of max; in the test with gluten-reactive T cells [1] (Subject 8, Max. 47 pg/mL), 0 % of max. The “Percent of maximal response … IFNg” value in the test with gluten-reactive T cells [1] (Subject 9, Max. 67 pg/mL) was 0 % of max; in the test with gluten-reactive T cells [1] (Subject 10, Max. 229 pg/mL), 0 % of max. Besides, the “IFNγ WB MAGPIX % max Mean” value with gluten-reactive T cells [1] is reported as 2 % max. The “Percent of maximal response … IP-10” value in the test on gluten-reactive T cells [2] (Subject 1, Max. 2331 pg/mL) is recorded as 0 % of max; with gluten-reactive T cells [2] (Subject 2, Max. 3646 pg/mL), 0 % of max; in the test on gluten-reactive T cells [2] (Subject 3, Max. 9492 pg/mL) it was 0 % of max; in the test with gluten-reactive T cells [2] (Subject 4, Max. 9463 pg/mL) it was 0 % of max; in the test on gluten-reactive T cells [2] (Subject 5, Max. 9336 pg/mL) it was 0 % of max; in the test with gluten-reactive T cells [2] (Subject 6, Max. 5863 pg/mL), 0 % of max. Further, the “Percent of maximal response … IP-10” value in the test on gluten-reactive T cells [2] (Subject 7, Max. 2330 pg/mL) is recorded as 0 % of max; in the test on gluten-reactive T cells [2] (Subject 8, Max. 4019 pg/mL), 0 % of max; in the test with gluten-reactive T cells [2] (Subject 9, Max. 8349 pg/mL), 0 % of max; with gluten-reactive T cells [2] (Subject 10, Max. 8922 pg/mL) it was 0 % of max. For the same substance, the “IP-10 WB MAGPIX % max Mean” value in the test with gluten-reactive T cells [2] was 0 % max. In addition, the “cytokine release / immunogenicity of individual peptide” value in the test on gluten-reactive T cells [3] (HLA-DQ2.5+ celiac disease subjects after gluten challenge) is recorded as “weak or not distinguishable from medium alone”.

Source of the values: US20170045513A1, “METHODS OF DIAGNOSING CELIAC DISEASE USING IP-10” (ImmusanT, Inc., priority 2014, published 2017).
